The species named for one experiment is Homo sapiens. Kind of experiment: Selectivity ratio for human recombinant FAAH over human recombinant MAGL.
Experiment [1] deals with Cannabinoid receptor 2 (Homo sapiens) (UniProt P34972). Kind of experiment: Agonist activity at human CB2 receptor expressed in CHO cell membranes up to 10 uM incubated for 10 mins prior to testing by [35S]GTPgammaS binding assay. Format: functional.
The target of experiment [2] is T1, Lysophosphatidylserine lipase ABHD12 (Homo sapiens) (UniProt Q8N2K0).
T1 sequence (whole entry): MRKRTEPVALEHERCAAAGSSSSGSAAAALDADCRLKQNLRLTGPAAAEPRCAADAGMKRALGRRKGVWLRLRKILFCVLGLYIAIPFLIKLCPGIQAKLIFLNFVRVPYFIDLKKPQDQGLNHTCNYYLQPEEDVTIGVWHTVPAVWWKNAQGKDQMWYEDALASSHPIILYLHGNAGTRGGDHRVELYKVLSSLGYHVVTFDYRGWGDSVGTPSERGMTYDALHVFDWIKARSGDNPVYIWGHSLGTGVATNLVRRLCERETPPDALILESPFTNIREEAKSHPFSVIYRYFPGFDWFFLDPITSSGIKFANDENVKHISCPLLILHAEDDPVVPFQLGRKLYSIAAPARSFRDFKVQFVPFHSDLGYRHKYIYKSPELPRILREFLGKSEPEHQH
Kind of experiment: Inhibition of human ABHD12 overexpressed in HEK293 cells assessed as 2-AG hydrolysis at 1 uM by fluorescent glycerol assay. Format: cell-based.

The target in experiment [3] is T2, Prostaglandin G/H synthase 2 (Homo sapiens) (UniProt P35354).
T2 sequence (whole entry): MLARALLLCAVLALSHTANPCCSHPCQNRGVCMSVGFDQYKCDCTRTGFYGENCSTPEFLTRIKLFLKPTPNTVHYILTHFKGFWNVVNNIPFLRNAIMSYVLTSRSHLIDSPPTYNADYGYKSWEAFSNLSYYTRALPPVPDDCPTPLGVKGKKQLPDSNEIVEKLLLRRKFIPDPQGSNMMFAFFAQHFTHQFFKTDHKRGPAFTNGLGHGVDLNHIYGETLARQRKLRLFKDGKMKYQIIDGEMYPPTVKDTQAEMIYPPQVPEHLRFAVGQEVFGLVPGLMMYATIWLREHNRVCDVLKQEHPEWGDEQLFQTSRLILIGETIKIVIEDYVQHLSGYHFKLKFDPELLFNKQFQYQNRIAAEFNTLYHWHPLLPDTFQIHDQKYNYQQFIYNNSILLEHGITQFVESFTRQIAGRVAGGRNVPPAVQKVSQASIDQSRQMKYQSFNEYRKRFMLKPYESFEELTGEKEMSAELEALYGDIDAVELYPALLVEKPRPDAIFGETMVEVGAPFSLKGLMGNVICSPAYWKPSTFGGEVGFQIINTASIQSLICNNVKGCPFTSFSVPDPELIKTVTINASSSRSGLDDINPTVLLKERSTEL
Kind of experiment: Inhibition of human recombinant COX-2 assessed as inhibition of 2-AG cyclooxygenation at 100 uM measured within 10 to 50 secs relative to control.

Experiment [4] has as its target T2, Prostaglandin G/H synthase 2 (Homo sapiens). Kind of experiment: Inhibition of human recombinant COX-2 assessed as inhibition of 2-AG cyclooxygenation at 30 uM measured within 10 to 50 secs relative to control.
Experiment [5] shares this target. Kind of experiment: Inhibition of human recombinant COX-2 assessed as inhibition of 2-AG cyclooxygenation at 10 uM measured within 10 to 50 secs relative to control.
For experiment [6] the target is unchanged. Kind of experiment: Inhibition of human recombinant COX-2 using arachidonic acid as substrate assessed as oxygen consumption at 10 uM measured within 10 to 50 secs relative to control.
Experiment [7] has as its target T3, Monoacylglycerol lipase ABHD6 (Mus musculus) (UniProt Q8R2Y0).
T3 sequence (whole entry): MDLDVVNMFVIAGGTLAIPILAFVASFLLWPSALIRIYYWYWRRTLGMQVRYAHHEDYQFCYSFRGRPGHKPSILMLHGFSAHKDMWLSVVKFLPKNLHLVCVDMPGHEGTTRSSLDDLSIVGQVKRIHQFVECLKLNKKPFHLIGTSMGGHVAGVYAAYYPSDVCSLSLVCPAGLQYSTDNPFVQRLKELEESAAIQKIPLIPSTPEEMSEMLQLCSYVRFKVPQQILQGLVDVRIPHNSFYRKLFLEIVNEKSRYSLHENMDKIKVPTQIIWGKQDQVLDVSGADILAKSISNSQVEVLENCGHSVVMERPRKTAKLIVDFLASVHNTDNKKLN
Kind of experiment: Inhibition of TAMRA-FP-labeled ABHD6 in mouse brain membrane at 10 uM after 1 hr by fluorescent gel scanning assay. It counts as cell membranes.

In experiment [8] the target is T4, Fatty-acid amide hydrolase 1 (Mus musculus) (UniProt O08914).
T4 sequence (whole entry): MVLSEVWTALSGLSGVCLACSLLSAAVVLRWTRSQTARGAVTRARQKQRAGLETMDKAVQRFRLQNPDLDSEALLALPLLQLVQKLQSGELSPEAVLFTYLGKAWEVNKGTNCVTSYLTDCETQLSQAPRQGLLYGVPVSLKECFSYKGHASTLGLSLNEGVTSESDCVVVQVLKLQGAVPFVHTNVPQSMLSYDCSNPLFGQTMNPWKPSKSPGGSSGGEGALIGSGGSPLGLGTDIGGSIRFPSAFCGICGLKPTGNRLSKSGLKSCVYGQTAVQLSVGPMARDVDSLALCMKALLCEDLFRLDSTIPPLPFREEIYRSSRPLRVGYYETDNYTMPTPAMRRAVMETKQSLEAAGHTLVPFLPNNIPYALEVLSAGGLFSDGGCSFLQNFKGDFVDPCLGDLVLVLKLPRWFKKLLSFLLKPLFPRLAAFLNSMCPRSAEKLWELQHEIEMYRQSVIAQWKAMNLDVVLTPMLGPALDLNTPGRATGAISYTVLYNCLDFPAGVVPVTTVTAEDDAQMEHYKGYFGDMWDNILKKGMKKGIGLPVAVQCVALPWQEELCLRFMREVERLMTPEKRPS
Kind of experiment: Inhibition of TAMRA-FP-labeled FAAH in mouse brain membrane after 1 hr by fluorescent gel scanning assay. Format: cell membranes.

Experiment [9] has as its target T5, Monoglyceride lipase (Homo sapiens) (UniProt Q99685).
T5 sequence (whole entry): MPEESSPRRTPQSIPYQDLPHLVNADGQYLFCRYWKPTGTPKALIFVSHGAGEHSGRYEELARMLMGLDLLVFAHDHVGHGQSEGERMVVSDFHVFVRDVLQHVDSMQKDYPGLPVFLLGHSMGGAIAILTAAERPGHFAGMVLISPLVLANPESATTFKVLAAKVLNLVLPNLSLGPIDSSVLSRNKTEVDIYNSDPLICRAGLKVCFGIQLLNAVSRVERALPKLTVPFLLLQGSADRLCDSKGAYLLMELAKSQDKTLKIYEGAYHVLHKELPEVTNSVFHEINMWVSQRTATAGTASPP
Kind of experiment: Inhibition of human recombinant MAGL overexpressed in HEK cells using 2-AG as substrate at 10 uM preincubated for 10 mins before substrate addition measured after 10 mins by HPLC analysis relative to control. It counts as cell-based. The settings on record: HEK293.

This passage reports Selectivity ratio, Activity and inhibition results from ChEMBL document CHEMBL3085700 (J Med Chem, 2013).

Calls of active or inactive are those of the source. No cut-off for these calls is given here.

Chain of Cannabinoid receptor 2 (Homo sapiens) (P34972 whole entry): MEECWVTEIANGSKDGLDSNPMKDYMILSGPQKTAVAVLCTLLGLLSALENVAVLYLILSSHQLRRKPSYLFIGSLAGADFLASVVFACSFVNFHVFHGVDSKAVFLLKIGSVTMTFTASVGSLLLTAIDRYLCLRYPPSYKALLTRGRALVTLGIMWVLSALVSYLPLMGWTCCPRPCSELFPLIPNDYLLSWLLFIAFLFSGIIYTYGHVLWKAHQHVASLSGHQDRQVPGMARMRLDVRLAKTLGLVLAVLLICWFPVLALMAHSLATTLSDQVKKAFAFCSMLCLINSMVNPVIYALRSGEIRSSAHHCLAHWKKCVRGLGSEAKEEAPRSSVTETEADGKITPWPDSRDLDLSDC

Turning to `COc1nn([C@@H](C)c2ccc(CC(C)C)cc2)c(=O)o1`, the Selectivity ratio in the experiment filed under Homo sapiens is greater than 900. In [1], the result was inactive. Further, the inhibition entry in experiment [2] and in experiment [7] was “inactive” throughout. Besides, the inhibition is 30% in [3]; 20% in experiment [4]; 10% in experiment [5]; 20% in experiment [6]; “Dose-dependent effect” in [8]; 16% in experiment [9].
